{"source": "ChEMBL document CHEMBL1201862", "about": "“PubChem BioAssay data set” (2004)", "assay_in_all_cases": "growth of human tumour cells (NCI), 48 h", "key": {"Hs-578T": {"tested_on": "Hs-578T"}, "U-251": {"tested_on": "U-251"}, "M14": {"tested_on": "M14"}, "A498": {"tested_on": "A498"}, "HOP-62": {"tested_on": "HOP-62"}, "HT-29": {"tested_on": "HT-29"}, "SF-268": {"tested_on": "SF-268"}, "SK-OV-3": {"tested_on": "SK-OV-3"}, "NCI-H226": {"tested_on": "NCI-H226"}, "KM12": {"tested_on": "KM12"}, "BT-549": {"tested_on": "BT-549"}, "CAKI-1": {"tested_on": "CAKI-1"}, "OVCAR-3": {"tested_on": "OVCAR-3"}, "SNB-19": {"tested_on": "SNB-19"}, "OVCAR-8": {"tested_on": "OVCAR-8"}, "OVCAR-5": {"tested_on": "OVCAR-5"}, "MDA-MB-435": {"tested_on": "MDA-MB-435"}, "UO-31": {"tested_on": "UO-31"}, "MDA-N": {"tested_on": "MDA-N"}, "EKVX": {"tested_on": "EKVX"}, "COLO 205": {"tested_on": "COLO 205"}, "NCI/ADR-RES": {"tested_on": "NCI/ADR-RES"}, "A549": {"tested_on": "A549"}, "LOX IMVI": {"tested_on": "LOX IMVI"}, "SK-MEL-5": {"tested_on": "SK-MEL-5"}, "HCT-116": {"tested_on": "HCT-116"}, "SK-MEL-28": {"tested_on": "SK-MEL-28"}, "OVCAR-4": {"tested_on": "OVCAR-4"}, "RXF 393": {"tested_on": "RXF 393"}, "IGROV-1": {"tested_on": "IGROV-1"}, "HCT-15": {"tested_on": "HCT-15"}, "PC-3": {"tested_on": "PC-3"}, "HCC 2998": {"tested_on": "HCC 2998"}, "K562": {"tested_on": "K562"}, "Malme-3M": {"tested_on": "Malme-3M"}, "SN12C": {"tested_on": "SN12C"}, "SNB-75": {"tested_on": "SNB-75"}, "NCI-H23": {"tested_on": "NCI-H23"}, "ACHN": {"tested_on": "ACHN"}, "MDA-MB-231": {"tested_on": "MDA-MB-231"}, "MCF7": {"tested_on": "MCF7"}, "SK-MEL-2": {"tested_on": "SK-MEL-2"}, "MOLT-4": {"tested_on": "MOLT-4"}, "HL-60": {"tested_on": "HL-60"}, "CCRF-CEM": {"tested_on": "CCRF-CEM"}, "SW-620": {"tested_on": "SW-620"}, "UACC-62": {"tested_on": "UACC-62"}, "SF-295": {"tested_on": "SF-295"}, "786-0": {"tested_on": "786-0"}, "HOP-92": {"tested_on": "HOP-92"}, "UACC-257": {"tested_on": "UACC-257"}, "SR": {"tested_on": "SR"}, "NCI-H460": {"tested_on": "NCI-H460"}, "SF-539": {"tested_on": "SF-539"}, "TK-10": {"tested_on": "TK-10"}}, "note": "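Where inhibition never reached the appropriate level, the endpoint shown equals the highest concentration tested. Otherwise, values were interpolated linearly from a five-concentration, 48-hour dose response in 96-well plates. GI50 = concentration required for 50% inhibition of growth.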 Active and inactive are the calls of the source. Cut-off read from the data, not from the text of the source: active = GI50 up to about 1.1 µM and inactive = higher."}
{"compound": "CCN(CC)CCNc1n[n+]([O-])c2cc([N+](=O)[O-])ccc2[n+]1[O-]", "values": [{"measurement": "GI50", "setting": "Hs-578T", "result": "3.25 µM (inactive)"}, {"measurement": "GI50", "setting": "U-251", "result": "0.603 µM (active)"}, {"measurement": "GI50", "setting": "M14", "result": "0.377 µM (active)"}, {"measurement": "GI50", "setting": "A498", "result": "1.9 µM (inactive)"}, {"measurement": "GI50", "setting": "HOP-62", "result": "0.434 µM (active)"}, {"measurement": "GI50", "setting": "HT-29", "result": "0.197 µM (active)"}, {"measurement": "GI50", "setting": "SF-268", "result": "0.568 µM (active)"}, {"measurement": "GI50", "setting": "SK-OV-3", "result": "0.687 µM (active)"}, {"measurement": "GI50", "setting": "NCI-H226", "result": "1.83 µM (inactive)"}, {"measurement": "GI50", "setting": "KM12", "result": "0.504 µM (active)"}, {"measurement": "GI50", "setting": "BT-549", "result": "1.19 µM (inactive)"}, {"measurement": "GI50", "setting": "CAKI-1", "result": "0.205 µM (active)"}, {"measurement": "GI50", "setting": "OVCAR-3", "result": "0.865 µM (active)"}, {"measurement": "GI50", "setting": "SNB-19", "result": "1.19 µM (inactive)"}, {"measurement": "GI50", "setting": "OVCAR-8", "result": "0.283 µM (active)"}, {"measurement": "GI50", "setting": "OVCAR-5", "result": "2.04 µM (inactive)"}, {"measurement": "GI50", "setting": "MDA-MB-435", "result": "0.847 µM (active)"}, {"measurement": "GI50", "setting": "UO-31", "result": "1.84 µM (inactive)"}, {"measurement": "GI50", "setting": "MDA-N", "result": "0.452 µM (active)"}, {"measurement": "GI50", "setting": "EKVX", "result": "1.94 µM (inactive)"}, {"measurement": "GI50", "setting": "COLO 205", "result": "0.326 µM (active)"}, {"measurement": "GI50", "setting": "NCI/ADR-RES", "result": "0.979 µM (active)"}, {"measurement": "GI50", "setting": "A549", "result": "0.454 µM (active)"}, {"measurement": "GI50", "setting": "LOX IMVI", "result": "0.444 µM (active)"}, {"measurement": "GI50", "setting": "SK-MEL-5", "result": "0.429 µM (active)"}, {"measurement": "GI50", "setting": "HCT-116", "result": "0.3 µM (active)"}, {"measurement": "GI50", "setting": "SK-MEL-28", "result": "3.41 µM (inactive)"}, {"measurement": "GI50", "setting": "OVCAR-4", "result": "1 µM (active)"}, {"measurement": "GI50", "setting": "RXF 393", "result": "0.809 µM (active)"}, {"measurement": "GI50", "setting": "IGROV-1", "result": "0.116 µM (active)"}]}
{"compound": "COC(=O)/C1=C/C=C\\C[C@@]2(C)CC(c3ccoc3)OC(=O)[C@@H]2CC[C@H]1C", "note": "(stereo partly drawn)", "values": [{"measurement": "GI50", "setting": "HCT-15", "result": "> 25", "unit": "µM"}, {"measurement": "GI50", "setting": "Hs-578T", "result": "> 25 µM (inactive)"}, {"measurement": "GI50", "setting": "PC-3", "result": "> 25 µM (inactive)"}, {"measurement": "GI50", "setting": "U-251", "result": "> 25 µM (inactive)"}, {"measurement": "GI50", "setting": "M14", "result": "> 25 µM (inactive)"}, {"measurement": "GI50", "setting": "HCC 2998", "result": "> 25 µM (inactive)"}, {"measurement": "GI50", "setting": "A498", "result": "> 25 µM (inactive)"}, {"measurement": "GI50", "setting": "HOP-62", "result": "> 25 µM (inactive)"}, {"measurement": "GI50", "setting": "K562", "result": "> 25 µM (inactive)"}, {"measurement": "GI50", "setting": "HT-29", "result": "> 25 µM (inactive)"}, {"measurement": "GI50", "setting": "SK-OV-3", "result": "> 25 µM (inactive)"}, {"measurement": "GI50", "setting": "Malme-3M", "result": "> 25 µM (inactive)"}, {"measurement": "GI50", "setting": "SN12C", "result": "> 25 µM (inactive)"}, {"measurement": "GI50", "setting": "NCI-H226", "result": "> 25 µM (inactive)"}, {"measurement": "GI50", "setting": "KM12", "result": "> 25 µM (inactive)"}, {"measurement": "GI50", "setting": "BT-549", "result": "> 25 µM (inactive)"}, {"measurement": "GI50", "setting": "CAKI-1", "result": "> 25 µM (inactive)"}, {"measurement": "GI50", "setting": "SNB-75", "result": "> 25 µM (inactive)"}, {"measurement": "GI50", "setting": "OVCAR-3", "result": "> 25 µM (inactive)"}, {"measurement": "GI50", "setting": "NCI-H23", "result": "> 25 µM (inactive)"}, {"measurement": "GI50", "setting": "ACHN", "result": "> 25 µM (inactive)"}, {"measurement": "GI50", "setting": "SNB-19", "result": "> 25 µM (inactive)"}, {"measurement": "GI50", "setting": "MDA-MB-231", "result": "> 25 µM (inactive)"}, {"measurement": "GI50", "setting": "OVCAR-8", "result": "> 25 µM (inactive)"}, {"measurement": "GI50", "setting": "MCF7", "result": "> 25 µM (inactive)"}, {"measurement": "GI50", "setting": "SK-MEL-2", "result": "> 25 µM (inactive)"}, {"measurement": "GI50", "setting": "MOLT-4", "result": "> 25 µM (inactive)"}, {"measurement": "GI50", "setting": "OVCAR-5", "result": "> 25 µM (inactive)"}, {"measurement": "GI50", "setting": "HL-60", "result": "7.23 µM (inactive)"}, {"measurement": "GI50", "setting": "CCRF-CEM", "result": "> 25 µM (inactive)"}, {"measurement": "GI50", "setting": "SW-620", "result": "> 25 µM (inactive)"}, {"measurement": "GI50", "setting": "UACC-62", "result": "> 25 µM (inactive)"}, {"measurement": "GI50", "setting": "SF-295", "result": "> 25 µM (inactive)"}, {"measurement": "GI50", "setting": "786-0", "result": "> 25 µM (inactive)"}, {"measurement": "GI50", "setting": "UO-31", "result": "> 25 µM (inactive)"}, {"measurement": "GI50", "setting": "MDA-N", "result": "> 25 µM (inactive)"}, {"measurement": "GI50", "setting": "EKVX", "result": "> 25 µM (inactive)"}, {"measurement": "GI50", "setting": "COLO 205", "result": "> 25 µM (inactive)"}, {"measurement": "GI50", "setting": "NCI/ADR-RES", "result": "> 25 µM (inactive)"}, {"measurement": "GI50", "setting": "HOP-92", "result": "> 25 µM (inactive)"}, {"measurement": "GI50", "setting": "UACC-257", "result": "> 25 µM (inactive)"}, {"measurement": "GI50", "setting": "SR", "result": "> 25 µM (inactive)"}, {"measurement": "GI50", "setting": "A549", "result": "> 25 µM (inactive)"}, {"measurement": "GI50", "setting": "LOX IMVI", "result": "> 25 µM (inactive)"}, {"measurement": "GI50", "setting": "SK-MEL-5", "result": "> 25 µM (inactive)"}, {"measurement": "GI50", "setting": "NCI-H460", "result": "> 25 µM (inactive)"}, {"measurement": "GI50", "setting": "SF-539", "result": "> 25 µM (inactive)"}, {"measurement": "GI50", "setting": "HCT-116", "result": "> 25 µM (inactive)"}, {"measurement": "GI50", "setting": "SK-MEL-28", "result": "> 25 µM (inactive)"}, {"measurement": "GI50", "setting": "TK-10", "result": "> 25 µM (inactive)"}, {"measurement": "GI50", "setting": "OVCAR-4", "result": "> 25 µM (inactive)"}, {"measurement": "GI50", "setting": "RXF 393", "result": "> 25 µM (inactive)"}, {"measurement": "GI50", "setting": "IGROV-1", "result": "> 25 µM (inactive)"}]}
